Measured values published in patent US20190284168A1, “PYRAZOLE DERIVATIES AS SGC STIMULATORS” (IRONWOOD PHARMACEUTICALS, INC., priority 2014, published 2019).

These compounds were tested against T1, soluble guanylate cyclase (sGC) (Homo sapiens, UniProt Q02108+Q02153) (assay: sGC-HEK-cGMP assay with LC/MS detection). Conditions: not given.
T1 construct: endogenously expressing soluble guanylate cyclase (sGC); endogenous in cells; host or cells: HEK293
T1 sequence (Q02153 1-619): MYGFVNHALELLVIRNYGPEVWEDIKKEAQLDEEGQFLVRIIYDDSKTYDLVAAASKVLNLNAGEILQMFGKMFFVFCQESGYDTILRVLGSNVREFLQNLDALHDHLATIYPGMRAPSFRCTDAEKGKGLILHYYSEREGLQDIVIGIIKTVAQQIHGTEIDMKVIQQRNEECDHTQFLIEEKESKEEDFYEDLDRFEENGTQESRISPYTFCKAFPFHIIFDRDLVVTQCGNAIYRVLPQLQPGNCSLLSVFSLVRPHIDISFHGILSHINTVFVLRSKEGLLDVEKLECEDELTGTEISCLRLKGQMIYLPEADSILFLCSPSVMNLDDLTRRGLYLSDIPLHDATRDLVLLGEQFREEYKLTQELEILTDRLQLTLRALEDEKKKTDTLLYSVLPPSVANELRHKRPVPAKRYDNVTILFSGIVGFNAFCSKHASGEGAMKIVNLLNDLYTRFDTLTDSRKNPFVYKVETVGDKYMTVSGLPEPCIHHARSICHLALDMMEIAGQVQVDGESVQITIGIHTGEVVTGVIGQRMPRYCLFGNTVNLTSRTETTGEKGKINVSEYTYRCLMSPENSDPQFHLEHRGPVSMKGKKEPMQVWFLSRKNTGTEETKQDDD
T1 sequence (Q02108 1-690): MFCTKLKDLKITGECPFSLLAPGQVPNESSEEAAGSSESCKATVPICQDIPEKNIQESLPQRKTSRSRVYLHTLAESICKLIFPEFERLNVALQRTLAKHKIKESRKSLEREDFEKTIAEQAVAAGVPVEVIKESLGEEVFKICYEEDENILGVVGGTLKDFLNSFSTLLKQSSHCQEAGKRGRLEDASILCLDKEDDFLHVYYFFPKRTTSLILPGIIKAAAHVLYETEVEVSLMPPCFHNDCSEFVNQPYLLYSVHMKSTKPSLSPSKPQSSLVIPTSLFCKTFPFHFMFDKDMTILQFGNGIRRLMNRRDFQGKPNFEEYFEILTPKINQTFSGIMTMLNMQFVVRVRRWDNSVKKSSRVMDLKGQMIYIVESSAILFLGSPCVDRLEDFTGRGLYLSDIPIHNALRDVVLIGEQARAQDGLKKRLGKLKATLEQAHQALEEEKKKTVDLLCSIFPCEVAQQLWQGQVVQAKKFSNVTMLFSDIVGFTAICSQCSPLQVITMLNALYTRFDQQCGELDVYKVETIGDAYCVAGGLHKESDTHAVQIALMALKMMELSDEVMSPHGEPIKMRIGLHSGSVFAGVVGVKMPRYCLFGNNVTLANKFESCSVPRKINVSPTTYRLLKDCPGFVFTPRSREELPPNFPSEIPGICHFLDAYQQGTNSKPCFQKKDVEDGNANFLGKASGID
Assay type: cell-based
`Oc1cc(CNc2nc(-c3cc(-c4ccon4)n(Cc4ccccc4F)n3)ncc2F)on1` [Compound 28] gave an EC50 of under 100 nM.

Same assay, conditions: HEK293 whole cells, LC/MS detection of cGMP, 10 μM DETA-NONOate; 50% of high control response (30 μM Compound Y); read-out: Absolute EC50 (nM)- binned (~)
`CNc1cc(-c2ncc(F)c(O)n2)nn1Cc1ccccc1F` [Compound 1] gave an EC50 of over 1000 nM.
`CC(C)(NC(=O)OCc1ccccc1)C(=O)Nc1ccnc(-c2cc(-c3ccon3)n(Cc3ccccc3F)n2)n1` [Compound 5] showed an EC50 of over 1000 nM.
With `NC(=O)CNc1cnc(-c2cc(-c3ccon3)n(Cc3ccccc3F)n2)nc1` [Compound 6] the EC50 was over 1000 nM.
`O=[N+]([O-])c1cnc(-c2cc(-c3ccon3)n(Cc3ccccc3F)n2)nc1NCCO` [Compound 7] was tested, and the EC50 was over 30000 nM.
With `OCCNc1cnc(-c2cc(-c3ccon3)n(Cc3ccccc3F)n2)nc1` [Compound 8] the EC50 was 100 to 1000 nM.
For `NCCNc1cnc(-c2cc(-c3ccon3)n(Cc3ccccc3F)n2)nc1` [Compound 9], the EC50 was over 1000 nM.
`Nc1nc(-c2cc(-c3ccon3)n(Cc3ccccc3F)n2)ncc1NCCO` [Compound 10] showed an EC50 of over 1000 nM.
Compound `Fc1ccccc1Cn1nc(-c2ncc(F)c(Nc3nnc(C(F)(F)F)[nH]3)n2)cc1-c1ccon1` [Compound 12] has an EC50 of over 30000 nM.
For `O=C(NNC(=O)C(F)(F)F)Nc1nc(-c2cc(-c3ccon3)n(Cc3ccccc3F)n2)ncc1F` [Compound 13], the EC50 was over 1000 nM.
Work on `Cc1nnc(Nc2nc(-c3cc(-c4ccon4)n(Cc4ccccc4F)n3)ncc2F)o1` [Compound 14] yielded an EC50 of 100 to 1000 nM.
`NC(=O)C(F)(F)CNc1nc(-c2cc(-c3ccon3)n(Cc3ccccc3F)n2)ncc1F` [Compound 15] was tested, and the EC50 was under 100 nM.
`Fc1ccccc1Cn1nc(-c2ncc(F)c(N3CCCO3)n2)cc1-c1ccon1` [Compound 16] gave an EC50 of 100 to 1000 nM.
`Nc1nc(-c2cc(-c3ccon3)n(Cc3ccccc3F)n2)nc(N)c1NS(=O)(=O)CCC(F)(F)F` [Compound 19] was tested, and the EC50 was over 1000 nM.
Work on `COCc1cc(-c2ncc(F)c(NCC(O)(C(N)=O)C(F)(F)F)n2)nn1Cc1ccccc1F` (stereo not drawn) [Compound 20] yielded an EC50 of over 30000 nM.
`OCC(O)CNc1cnc(-c2cc(-c3ccon3)n(Cc3ccccc3F)n2)nc1` (stereo not drawn) [Compound 21] was tested, and the EC50 was over 1000 nM.
`CS(=O)(=O)CCNc1cnc(-c2cc(-c3ccon3)n(Cc3ccccc3F)n2)nc1` [Compound 22] was tested, and the EC50 was over 1000 nM.
Work on `CS(=O)(=O)NCCNc1cnc(-c2cc(-c3ccon3)n(Cc3ccccc3F)n2)nc1` [Compound 24] yielded an EC50 of 100 to 1000 nM.
`OC(CNc1nc(-n2cc(-c3ccon3)c(Cc3ccccc3F)n2)ncc1F)(C(F)(F)F)C(F)(F)F` [Compound 26] showed an EC50 of 100 to 1000 nM.
In the case of `CC1(C#N)C(=O)Nc2nc(-c3cc(-c4ccon4)n(Cc4ccccc4F)n3)nc(N)c21` (stereo not drawn) [Compound 29], the EC50 is reported as under 100 nM.
Compound `NC(=O)C(O)(CNc1nc(-n2cc(-c3ccon3)c(Cc3ccccc3F)n2)ncc1F)C(F)(F)F` (stereo not drawn) [Compound 30] has an EC50 of 100 to 1000 nM.
With `CC(C)(N)C(=O)Nc1ccnc(-c2cc(-c3ccon3)n(Cc3ccccc3F)n2)n1` [Compound 33] the EC50 was over 1000 nM.
In the case of `Fc1ccccc1Cn1nc(-c2ncc(F)c(N3CCCCO3)n2)cc1-c1ccon1` [Compound 34], the EC50 is reported as 100 to 1000 nM.
With `CC(C(N)=O)C(=O)Nc1ccnc(-c2cc(-c3ccon3)n(Cc3ccccc3F)n2)n1` (stereo not drawn) [Compound 35] the EC50 was over 1000 nM.
Compound `CC(O)(C(N)=O)C(=O)Nc1ccnc(-c2cc(-c3ccon3)n(Cc3ccccc3F)n2)n1` (stereo not drawn) [Compound 36] has an EC50 of 100 to 1000 nM.
Work on `NC(=O)Cc1c[nH]n(-c2nc(-c3cc(-c4ccon4)n(Cc4ccccc4F)n3)ncc2F)c1=O` [Compound 40] yielded an EC50 of over 1000 nM.
Compound `NC(=O)Cc1cn(-c2nc(-c3cc(-c4ccon4)n(Cc4ccccc4F)n3)ncc2F)[nH]c1=O` [Compound 41] has an EC50 of over 1000 nM.
`Nc1nnc(C(O)(CNc2nc(-c3cc(-c4ccon4)n(Cc4ccccc4F)n3)ncc2F)C(F)(F)F)o1` (stereo not drawn) [Compound 42] showed an EC50 of 100 to 1000 nM.
With `O=c1n(-c2nc(-c3cc(-c4ccon4)n(Cc4ccccc4F)n3)ncc2F)nc2n1CCNC2` [Compound 43] the EC50 was over 1000 nM.
Work on `CCC(C)(NC(=O)OCc1ccccc1)C(=O)Nc1ccnc(-c2cc(-c3ccon3)n(Cc3ccccc3F)n2)n1` (stereo not drawn) [Compound 46] yielded an EC50 of over 1000 nM.
In the case of `CCC(C)(N)C(=O)Nc1ccnc(-c2cc(-c3ccon3)n(Cc3ccccc3F)n2)n1` (stereo not drawn) [Compound 47], the EC50 is reported as 100 to 1000 nM.
For `CC(C)(C(N)=O)C(=O)Nc1nc(-c2cc(-c3ccon3)n(Cc3ccccc3F)n2)ncc1F` [Compound 48], the EC50 was over 1000 nM.
`CC(C)(C(=O)O)C(=O)Nc1ccnc(-c2cc(-c3ccon3)n(Cc3ccccc3F)n2)n1` [Compound 49] showed an EC50 of over 1000 nM.
With `CC(C)(C(N)=O)C(=O)Nc1ccnc(-c2cc(-c3ccon3)n(Cc3ccccc3F)n2)n1` [Compound 51] the EC50 was 100 to 1000 nM.
`Cc1nnc(C(O)(CNc2nc(-c3cc(-c4ccon4)n(Cc4ccccc4F)n3)ncc2F)C(F)(F)F)o1` (stereo not drawn) [Compound 52] showed an EC50 of under 100 nM.
`NC(=O)c1nnc2n1CCN(c1nc(-c3cc(-c4ccon4)n(Cc4ccccc4F)n3)ncc1F)C2` [Compound 54] showed an EC50 of under 100 nM.
Work on `CCC(C)(N)CNc1nc(-c2cc(-c3ccon3)n(Cc3ccccc3F)n2)ncc1F` (stereo not drawn) [Compound 55] yielded an EC50 of 100 to 1000 nM.
`COc1nn(-c2nc(-c3cc(-c4ccon4)n(Cc4ccccc4F)n3)ncc2F)cc1CC(N)=O` [Compound 57] gave an EC50 of over 30000 nM.
With `CC1(C(=O)Nc2ccnc(-c3cc(-c4ccon4)n(Cc4ccccc4F)n3)n2)CCNC1=O` (stereo not drawn) [Compound 59] the EC50 was 100 to 1000 nM.
With `NC(=O)C1CCN(c2nc(-c3cc(-c4ccon4)n(Cc4ccccc4F)n3)ncc2F)CC1` [Compound 60] the EC50 was under 100 nM.
`CCOC(=O)C(C)(C)c1nnc(-c2cc(-c3ccon3)n(Cc3ccccc3F)n2)nc1OC` [Compound 61] showed an EC50 of over 1000 nM.
In the case of `Cn1ccnc1C(O)(CNc1nc(-c2cc(-c3ccon3)n(Cc3ccccc3F)n2)ncc1F)C(F)(F)F` (stereo not drawn) [Compound 64], the EC50 is reported as 100 to 1000 nM.
With `O=C(NC1CC1)C(O)(CNc1nc(-c2cc(-c3ccon3)n(Cc3ccccc3F)n2)ncc1F)C(F)(F)F` (stereo not drawn) [Compound 65] the EC50 was under 100 nM.
Compound `CCOC(=O)C(C)(C)C(=O)Nc1ccnc(-c2cc(-c3ccon3)n(Cc3ccccc3F)n2)n1` [Compound 66] has an EC50 of over 1000 nM.
`CC(N)(CNc1nc(-c2cc(-c3ccon3)n(Cc3ccccc3F)n2)ncc1F)C1CC1` (stereo not drawn) [Compound 67] gave an EC50 of 100 to 1000 nM.
In the case of `NC1(CNc2nc(-c3cc(-c4ccon4)n(Cc4ccccc4F)n3)ncc2F)CC1` [Compound 68], the EC50 is reported as 100 to 1000 nM.
`OC(CNc1nc(-c2cc(-c3ccon3)n(Cc3ccccc3F)n2)ncc1F)(c1nnc(C2CC2)o1)C(F)(F)F` (stereo not drawn) [Compound 69, 2-(5-cyclopropyl-1,3,4-oxadiazol-2-yl)-1,1,1-trifluoro-3-((5-fluoro-2-(1-(2-fluorobenzyl)-5-(isoxazol-3-yl)-1H-pyrazol-3-yl)pyrimidin-4-yl)amino)propan-2-ol] gave an EC50 of under 100 nM.
`CC(=O)c1cc(-c2ncc(F)c(NCc3cc(=O)[nH]o3)n2)nn1Cc1ccccc1F` [Compound 70] was tested, and the EC50 was 100 to 1000 nM.
`CC(=O)c1cc(-c2ncc(F)c(N3CCNC(C(F)(F)F)C3)n2)nn1Cc1ccccc1F` (stereo not drawn) [Compound 71] was tested, and the EC50 was 100 to 1000 nM.
Work on `CC(=O)c1cc(-c2ncc(F)c(NC[C@@H](C(=O)O)C(C)C)n2)nn1Cc1ccccc1F` [Compound 72] yielded an EC50 of 100 to 1000 nM.
For `CC(=O)c1cc(-c2ncc(F)c(N(C)C[C@@H](C(=O)O)C(C)C)n2)nn1Cc1ccccc1F` [Compound 73], the EC50 was over 1000 nM.
`CCOC(=O)[C@H](CN(C)c1nc(-c2cc(C(C)=O)n(Cc3ccccc3F)n2)ncc1F)C(C)C` [Compound 74] gave an EC50 of 100 to 1000 nM.
In the case of `O=C(Cc1cc(=O)o[nH]1)Nc1ccnc(-c2cc(-c3ccon3)n(Cc3ccccc3F)n2)n1` [Compound 75], the EC50 is reported as 100 to 1000 nM.
With `CC(=O)c1cc(-c2ncc(F)c(NCCS(N)(=O)=O)n2)nn1Cc1ccccc1F` [Compound 76] the EC50 was 100 to 1000 nM.
In the case of `CC(=O)c1cc(-c2ncc(F)c(N3CCNC(=O)C3)n2)nn1Cc1ccccc1F` [Compound 77], the EC50 is reported as over 1000 nM.
In the case of `CC(=O)c1cc(-c2ncc(F)c(N3CCCC(F)(F)C3)n2)nn1Cc1ccccc1F` [Compound 79], the EC50 is reported as 100 to 1000 nM.
`COC1CCN(c2nc(-c3cc(C(C)=O)n(Cc4ccccc4F)n3)ncc2F)C1` (stereo not drawn) [Compound 80] gave an EC50 of 100 to 1000 nM.
Compound `CN(C)c1cc(-c2ncc(F)c(O)n2)nn1Cc1ccccc1F` [Compound 81] has an EC50 of over 1000 nM.
`CC(=O)c1cc(-c2ncc(F)c(N)n2)nn1Cc1ccccc1F` [Compound 84] gave an EC50 of over 1000 nM.
In the case of `CC(=O)c1cc(-c2ncc(F)c(NCC(O)(C(N)=O)C(F)(F)F)n2)nn1Cc1ccccc1F` (stereo not drawn) [Compound 85], the EC50 is reported as 100 to 1000 nM.
